Patent publication US20250082656A1, “DOSAGE REGIMENS FOR TREATMENT OF DENGUE INFECTION” (Atea Pharmaceuticals, Inc., priority 2022, published 2025)

Key:
[1] = biological target: T1, DENV2 NS5 (Dengue virus type 2, UniProt P14340); assay: Nucleotide analogue incorporation / discrimination assay, DENV2 NS5; format: biochemical; settings: DENV2; GTP for AT-9010 and AT-9002, UTP for SOF-TP
Experimental: (§1) The chain-terminating efficiency of Compound 5 was measured in competitive nucleotide incorporation assays using all four DENV serotypes. […] In comparison, sofosbuvir triphosphate is incorporated into the RNA less than 1 time for every 100 UTP (native uridine triphosphate) incorporations.
The experimental procedure is provided in Example 10.
(§2) Measurements and quantitations were as in FIG. 19B.
DENV NS5 was preincubated with the annealed P10/T20 RNA in an assembly buffer containing 20 mM HEPES pH 7.5, 10% glycerol, 5 mM MgCl2 and 5 mM DTT for 10 min at 30° C. to create an active RNA elongation complex. Reactions were started by adding AT-9010 with either all four NTPs, or UTP, ATP and CTP only. […] Reactions were quenched at indicated timepoints in 2× volume FBD stop solution (formamide, 10 mM EDTA) and analysed on 20% acrylamide:bisacrylamide (19:1), […] sequencing gels. RNA products were visualized using a Typhoon FluorImager and analyzed using ImageQuant software.
(§3) DENV NS5 was pre-incubated with the annealed P10/T20 RNA in an assembly buffer containing 20 mM HEPES pH 7.5, 10% glycerol, 5 mM MgCl2, and 5 mM DTT for 10 min at 30° C. to create an active RNA elongation complex.
(§4) Reactions were started by adding AT-9010 with either all four NTPs or UTP, ATP, and CTP only.
(§5) Single nucleotide incorporation was tested as follows. Reactions were started by adding the corresponding NTP or analogue. Final concentrations were 1 μM NS5, 0.25 μM P10/T20, 100 μM NTP or analogue in a final buffer containing 20 mM HEPES pH 7.5, 15% glycerol, 5 mM MgCl2, and 5 mM DTT.
(§6) Reactions were quenched at the designated time points in 3× volume FBD stop solution (formamide, 10 mM EDTA) and analyzed on 20% acrylamide-bisacrylamide (19:1) […] sequencing gels. RNA products were visualized using a Typhoon FluorImager then analyzed and quantified using ImageQuant software.

[2] = biological target: T2, DENV3 NS5 (Dengue virus type 3, UniProt Q6YMS4); assay: Nucleotide analogue incorporation / discrimination assay, DENV3 NS5; format: biochemical; settings: GTP for AT-9010 and AT-9002, UTP for SOF-TP
Experimental: as §1, §2, §3, §4, §5, §6

[3] = biological target: T3, DENV1 NS5 (Dengue virus type 1, UniProt P17763); assay: Nucleotide analogue incorporation / discrimination assay, DENV1 NS5; format: biochemical; settings: GTP for AT-9010 and AT-9002, UTP for SOF-TP
Experimental: as §1, §2, §3, §4, §5, §6

[4] = biological target: T4, DENV4 NS5 (Dengue virus type 4, UniProt P09866); assay: Nucleotide analogue incorporation / discrimination assay, DENV4 NS5; format: biochemical; settings: GTP for AT-9010 and AT-9002, UTP for SOF-TP
Experimental: as §1
The nature of regular inserted Watson-Crick nucleotides is indicated in the right of the gel. […] Quantification of band-products greater in size than the G/AT (+5) band relative to the G/AT (+5) band were measured using a Typhoon FluorImager, and allowed to calculate the discrimination value. The incorporation rates for […] and AT9002 are compared to that of GTP, and to that of UTP in the case of SOF-TP.
as §2, §3, §4, §5, §6

[5] = tested on: granulocyte macrophage (GM) human bone marrow progenitor cells; assay: Bone marrow progenitor cell assay, granulocyte macrophage (GM); settings: GM cell assay, 14 days, colonies counted
[6] = tested on: erythroid (E) human bone marrow progenitor cells; assay: Bone marrow progenitor cell assay, erythroid (E); settings: E cell assay, 14 days, colonies counted
[7] = biological target: DENV3 MTase domain (Dengue virus type 3, UniProt Q6YMS4); assay: Thermal shift assay, DENV3 MTase domain; settings: read-out: ΔTM
[8] = tested on: DENV4 RdRp domain; assay: Thermal shift assay, DENV4 RdRp domain; settings: RdRp domain DENV4, 100 μM compound
[9] = biological target: T1, DENV2 NS5; assay: Thermal shift assay, DENV2 NS5; settings: read-out: ΔTM
[10] = tested on: DENV1 RdRp domain; assay: Thermal shift assay, DENV1 RdRp domain; settings: RdRp domain DENV1, 100 μM compound
[11] = tested on: DENV3 RdRp domain; assay: Thermal shift assay, DENV3 RdRp domain; settings: RdRp domain DENV3, 100 μM compound
[12] = biological target: DENV2 MTase domain (Dengue virus type 2, UniProt P14340); assay: Thermal shift assay, DENV2 MTase domain; settings: read-out: ΔTM
[13] = biological target: T4, DENV4 NS5; assay: Thermal shift assay, DENV4 NS5; settings: read-out: ΔTM
[14] = biological target: T2, DENV3 NS5; assay: Thermal shift assay, DENV3 NS5; settings: read-out: ΔTM
[15] = biological target: DENV2 RdRp domain (Dengue virus type 2, UniProt P14340); assay: Thermal shift assay, DENV2 RdRp domain; settings: read-out: ΔTM
[16] = biological target: DENV1 MTase domain (Dengue virus type 1, UniProt P17763); assay: Thermal shift assay, DENV1 MTase domain; settings: read-out: ΔTM
[17] = biological target: DENV4 MTase domain (Dengue virus type 4, UniProt P09866); assay: Thermal shift assay, DENV4 MTase domain; settings: read-out: ΔTM
[18] = biological target: T3, DENV1 NS5; assay: Thermal shift assay, DENV1 NS5; settings: read-out: ΔTM
[19] = tested on: human induced pluripotent stem cell (iPS) cardiomyocytes; assay: Cardiomyocyte cytotoxicity assay (CellTiter Glo); settings: iPS cardiomyocytes, 3 days
[20] = tested on: NS5 RNA dependent RNA polymerase (RdRp); assay: Competitive nucleotide incorporation assays, all four DENV serotypes (summary); format: biochemical, Dengue virus; settings: versus native uridine triphosphate
Experimental: As described in Example 10 and shown in FIG. 1, the active metabolite of Compound 2 or Compound 1 (Compound 5) acts as a GTP analog and is incorporated into RNA by the NS5 RNA dependent RNA polymerase (RdRp), immediately terminating synthesis.
as §1

T3 sequence (P17763 2494-3392): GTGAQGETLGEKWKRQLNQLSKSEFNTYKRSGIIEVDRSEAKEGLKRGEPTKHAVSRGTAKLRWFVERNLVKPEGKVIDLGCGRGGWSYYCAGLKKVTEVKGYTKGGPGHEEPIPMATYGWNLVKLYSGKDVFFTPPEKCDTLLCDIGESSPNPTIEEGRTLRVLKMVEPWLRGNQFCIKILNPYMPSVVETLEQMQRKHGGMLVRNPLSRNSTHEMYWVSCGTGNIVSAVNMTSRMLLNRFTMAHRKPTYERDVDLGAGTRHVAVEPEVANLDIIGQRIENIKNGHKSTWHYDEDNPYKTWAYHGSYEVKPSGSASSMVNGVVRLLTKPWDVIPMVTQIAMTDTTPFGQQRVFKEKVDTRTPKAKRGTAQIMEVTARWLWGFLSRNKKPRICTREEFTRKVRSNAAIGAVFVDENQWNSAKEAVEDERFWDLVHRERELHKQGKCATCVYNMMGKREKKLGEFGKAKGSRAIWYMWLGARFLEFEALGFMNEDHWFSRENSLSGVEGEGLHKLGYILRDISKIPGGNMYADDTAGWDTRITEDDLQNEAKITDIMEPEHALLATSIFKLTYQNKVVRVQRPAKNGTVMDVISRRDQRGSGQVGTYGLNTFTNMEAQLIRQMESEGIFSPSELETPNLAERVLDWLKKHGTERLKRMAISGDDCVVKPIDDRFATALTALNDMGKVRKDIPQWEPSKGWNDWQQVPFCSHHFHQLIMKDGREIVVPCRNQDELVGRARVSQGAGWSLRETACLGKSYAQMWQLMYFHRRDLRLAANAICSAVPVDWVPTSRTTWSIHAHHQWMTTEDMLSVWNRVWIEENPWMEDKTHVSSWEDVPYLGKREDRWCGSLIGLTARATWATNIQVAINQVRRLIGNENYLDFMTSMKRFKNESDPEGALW
T4 sequence (P09866 2488-3387): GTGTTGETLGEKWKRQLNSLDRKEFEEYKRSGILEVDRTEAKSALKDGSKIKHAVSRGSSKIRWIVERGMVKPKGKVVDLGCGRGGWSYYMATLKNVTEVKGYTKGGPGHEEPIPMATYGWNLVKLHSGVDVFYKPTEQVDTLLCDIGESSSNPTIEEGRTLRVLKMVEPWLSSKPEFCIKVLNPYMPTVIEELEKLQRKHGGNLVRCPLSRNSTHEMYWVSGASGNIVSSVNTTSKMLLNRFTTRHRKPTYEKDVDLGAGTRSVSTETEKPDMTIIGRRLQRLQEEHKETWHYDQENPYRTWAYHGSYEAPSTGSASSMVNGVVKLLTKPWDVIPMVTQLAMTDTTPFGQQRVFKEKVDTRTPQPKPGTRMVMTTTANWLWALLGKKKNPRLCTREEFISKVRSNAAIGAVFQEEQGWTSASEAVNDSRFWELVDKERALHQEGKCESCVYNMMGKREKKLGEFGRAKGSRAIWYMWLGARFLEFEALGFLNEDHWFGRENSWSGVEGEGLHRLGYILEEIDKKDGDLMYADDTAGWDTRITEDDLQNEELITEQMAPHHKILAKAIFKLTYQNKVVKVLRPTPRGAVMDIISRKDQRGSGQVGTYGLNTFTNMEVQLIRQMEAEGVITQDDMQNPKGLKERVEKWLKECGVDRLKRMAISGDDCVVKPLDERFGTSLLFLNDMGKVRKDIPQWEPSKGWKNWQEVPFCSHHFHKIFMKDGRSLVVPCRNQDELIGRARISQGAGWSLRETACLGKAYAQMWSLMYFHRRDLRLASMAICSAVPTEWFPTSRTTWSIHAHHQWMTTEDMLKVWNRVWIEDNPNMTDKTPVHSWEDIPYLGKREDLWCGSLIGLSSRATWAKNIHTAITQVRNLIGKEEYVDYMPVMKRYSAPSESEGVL
T2 sequence (Q6YMS4 2491-3390): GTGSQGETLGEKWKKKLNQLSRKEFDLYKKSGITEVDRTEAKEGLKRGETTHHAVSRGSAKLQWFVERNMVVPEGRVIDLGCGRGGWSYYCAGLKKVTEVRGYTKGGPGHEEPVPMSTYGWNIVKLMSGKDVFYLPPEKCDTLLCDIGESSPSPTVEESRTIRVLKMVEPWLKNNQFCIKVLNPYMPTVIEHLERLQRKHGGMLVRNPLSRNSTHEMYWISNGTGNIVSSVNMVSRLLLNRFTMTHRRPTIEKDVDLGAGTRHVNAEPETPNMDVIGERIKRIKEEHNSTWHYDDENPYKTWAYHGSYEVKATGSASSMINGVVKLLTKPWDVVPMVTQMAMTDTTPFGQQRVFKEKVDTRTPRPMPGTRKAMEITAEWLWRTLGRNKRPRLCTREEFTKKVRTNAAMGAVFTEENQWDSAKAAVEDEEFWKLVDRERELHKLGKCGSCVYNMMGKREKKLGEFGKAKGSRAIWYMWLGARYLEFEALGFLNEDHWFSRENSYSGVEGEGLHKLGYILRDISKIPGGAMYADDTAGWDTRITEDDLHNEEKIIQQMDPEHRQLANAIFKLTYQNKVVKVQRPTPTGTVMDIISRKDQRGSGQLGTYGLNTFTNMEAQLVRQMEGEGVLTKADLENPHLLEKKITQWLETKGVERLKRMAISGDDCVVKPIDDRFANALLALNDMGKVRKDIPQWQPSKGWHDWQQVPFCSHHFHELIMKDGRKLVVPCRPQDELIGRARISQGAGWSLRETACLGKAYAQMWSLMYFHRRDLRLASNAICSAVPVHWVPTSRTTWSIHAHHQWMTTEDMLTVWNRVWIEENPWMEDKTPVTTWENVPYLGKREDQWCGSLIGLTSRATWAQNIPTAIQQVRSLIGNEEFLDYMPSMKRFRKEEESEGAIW
Sequence of DENV1 MTase domain (P17763 2495-2756): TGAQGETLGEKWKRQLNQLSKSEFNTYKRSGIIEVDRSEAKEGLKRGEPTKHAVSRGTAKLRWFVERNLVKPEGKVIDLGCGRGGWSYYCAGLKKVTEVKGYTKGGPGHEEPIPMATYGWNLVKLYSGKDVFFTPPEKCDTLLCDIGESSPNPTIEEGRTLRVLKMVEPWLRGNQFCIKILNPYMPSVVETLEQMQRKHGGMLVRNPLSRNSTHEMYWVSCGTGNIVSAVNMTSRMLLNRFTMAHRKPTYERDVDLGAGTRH
Sequence of DENV3 MTase domain (Q6YMS4 2492-2753): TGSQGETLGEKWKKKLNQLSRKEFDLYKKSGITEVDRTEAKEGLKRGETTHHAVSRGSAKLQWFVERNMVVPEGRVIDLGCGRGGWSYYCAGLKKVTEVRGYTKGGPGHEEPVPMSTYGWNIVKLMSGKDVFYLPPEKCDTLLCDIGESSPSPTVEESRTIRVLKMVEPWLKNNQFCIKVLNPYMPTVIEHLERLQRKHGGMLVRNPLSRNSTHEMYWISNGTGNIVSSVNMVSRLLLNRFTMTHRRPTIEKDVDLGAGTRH
Sequence of DENV4 MTase domain (P09866 2489-2751): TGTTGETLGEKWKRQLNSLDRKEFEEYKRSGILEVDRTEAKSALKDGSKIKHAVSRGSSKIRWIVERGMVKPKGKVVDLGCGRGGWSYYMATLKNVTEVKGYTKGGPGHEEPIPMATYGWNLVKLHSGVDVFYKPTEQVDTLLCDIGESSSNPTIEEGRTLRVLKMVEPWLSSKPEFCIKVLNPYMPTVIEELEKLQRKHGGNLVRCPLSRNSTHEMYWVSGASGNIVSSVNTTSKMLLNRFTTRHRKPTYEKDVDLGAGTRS

For C[C@@]1(O)[C@H](O)[C@@H](COP(=O)(O)OP(=O)(O)OP(=O)(O)O)O[C@H]1n1cnc2c(=O)[nH]c(N)nc21 [AT-9002, 2′-methylguanosine triphosphate], the “Preference (discrimination) native nucleotide > analogue” value [1] was 18.2 ± 0.2, the “Preference (discrimination) native nucleotide > analogue” value [2] was 17.5 ± 1.5 and the “Preference (discrimination) native nucleotide > analogue” value [3] was 19.4 ± 2.8. For the same molecule, the “Preference (discrimination) native nucleotide > analogue” value [4] was 41.5 ± 7.3.
Work on Cc1cn([C@H]2C[C@H](N=[N+]=[N-])[C@@H](CO)O2)c(=O)[nH]c1=O [AZT, reference compound] yielded a CC50 [5] of 2000 nM and a CC50 [6] of 3000 nM.
For Nc1nc2c(ncn2[C@@H]2O[C@H](COP(=O)(O)OP(=O)(O)OP(=O)(O)O)[C@@H](O)[C@H]2O)c(=O)[nH]1 [GTP, guanosine triphosphate], the ΔTm at 100 µM [7] was 4.1 ± 0.1 °C, the ΔTM [8] was 3.3 ± 0.1 °C and the ΔTm at 100 µM [9] was 5.7 ± 0.1 °C. It also gave a ΔTM [10] of 4.5±0.2 °C, a ΔTM [11] of 2.2 ± 0.1 °C and a ΔTm at 100 µM [12] of 5.7 ± 0.1 °C. It also gave a ΔTm at 100 µM [13] of 3.9 ± 0.1 °C, a ΔTm at 100 µM [14] of 4.8 ± 0.1 °C and a ΔTm at 100 µM [15] of 2.4 ± 0.1 °C. It also gave a ΔTm at 100 µM [16] of 4.9 ± 0.1 °C, a ΔTm at 100 µM [17] of 4 ± 0.1 °C and a ΔTm at 100 µM [18] of 5.8 ± 0.1 °C.
Molecule Nc1ncnc2c1ncn2[C@@H]1O[C@H](C[C@@H](N)CC[C@H](N)C(=O)O)[C@@H](O)[C@H]1O [Sinefungin, sinefungin] has a ΔTm at 100 µM [7] of 2.1 ± 0.1 °C, a ΔTm at 100 µM [9] of 1.4 ± 0.1 °C and a ΔTm at 100 µM [12] of 2.9 ± 0.1 °C. For the same molecule, the ΔTm at 100 µM [13] was 1.4 ± 0.1 °C, the ΔTm at 100 µM [14] was 1.8 ± 0.1 °C and the ΔTm at 100 µM [15] was -0.8 ± 0.1 °C. For the same molecule, the ΔTm at 100 µM [16] was 1.9 ± 0.1 °C, the ΔTm at 100 µM [17] was 2.8 ± 0.1 °C and the ΔTm at 100 µM [18] was 1.2 ± 0.1 °C.
For COc1cc2nc(N3CCN(C(=O)C4COc5ccccc5O4)CC3)nc(N)c2cc1OC (stereo not drawn) [doxazosin, reference compound], the CC50 [19] was 7000 nM.
sofosbuvir triphosphate [SOF-TP] was tested, and the “Preference (discrimination) native nucleotide > analogue” value [1] was over 100, the “Preference (discrimination) native nucleotide > analogue” value [2] was over 100 and the “Preference (discrimination) native nucleotide > analogue” value [3] was over 100. For the same molecule, the “Preference (discrimination) native nucleotide > analogue” value [4] was over 100 and the “incorporations into the RNA for every 100 UTP incorporations” value [20] was “less than 1”.
